In patent publication US8445492B2, “Method for inhibiting growth of cancer cells and cell telomere and diseases of cell proliferation by using heteroannelated anthraquinone derivative compounds” (National Defense Medical Center, priority 2008, dated 2013):

What was measured:
Type in all cases: cell-based
SF-295 = experiment: NCI DTP in-vitro dose response, CNS Cancer
MCF7 = experiment: NCI DTP in-vitro dose response, Breast Cancer
ACHN [1] = experiment: NCI DTP in-vitro dose response, Renal Cancer
LOX IMVI = experiment: NCI DTP in-vitro dose response, Melanoma
A498 = experiment: NCI DTP in-vitro dose response, Renal Cancer
SR = experiment: NCI DTP in-vitro dose response, Leukemia
HCC-2998 = experiment: NCI DTP in-vitro dose response, Colon Cancer
SF-539 [2] = experiment: NCI DTP in-vitro dose response, CNS Cancer
CAKI-1 = experiment: NCI DTP in-vitro dose response, Renal Cancer
UO-31 [3] = experiment: NCI DTP in-vitro dose response, Renal Cancer
M14 = experiment: NCI DTP in-vitro dose response, Melanoma
OVCAR-3 = experiment: NCI DTP in-vitro dose response, Ovarian Cancer
SW-620 = experiment: NCI DTP in-vitro dose response, Colon Cancer
SK-MEL-28 = experiment: NCI DTP in-vitro dose response, Melanoma
SNB-19 = experiment: NCI DTP in-vitro dose response, CNS Cancer
HOP-92 = experiment: in vitro test at 1.0×10^−5 M, Non-small cell lung cancer cell; details: 1.0×10^−5 molal concentration (M)
OVCAR-4 = experiment: in vitro test at 1.0×10^−5 M, Ovary cancer cell; details: 1.0×10^−5 molal concentration (M)
UO-31 [4] = experiment: in vitro test at 1.0×10^−5 M, Kidney cancer cell; details: 1.0×10^−5 molal concentration (M)
SF-539 [5] = experiment: in vitro test at 1.0×10^−5 M, CNS cancer cell; details: 1.0×10^−5 molal concentration (M)
ACHN [6] = experiment: in vitro test at 1.0×10^−5 M, Kidney cancer cell; details: 1.0×10^−5 molal concentration (M)
T-47D = experiment: in vitro test at 1.0×10^−5 M, Breast cancer cell; details: 1.0×10^−5 molal concentration (M)

O=C1c2ccccc2C(=O)c2c1ccc1nsnc21 [No. 22, Anthra[2,1-c][1,2,5]thiadiazole-6,11-dione]
GI50 (SF-295; Homo sapiens, SF-295): 3.08 µM | CC50 (SF-295; Homo sapiens, SF-295, read-out: LC50): 93.9 µM | Percent Growth (SF-295; Log10 Concentration −4.0): −51% | Percent Growth (SF-295; Log10 Concentration −5.0): −3% | Percent Growth (SF-295; Log10 Concentration −6.0): 100% | Percent Growth (SF-295; Log10 Concentration −7.0): 105% | Percent Growth (SF-295; Log10 Concentration −8.0): 102% | TGI (SF-295; SF-295): 9.40E−6 | GI50 (MCF7; Homo sapiens, MCF7): 1240 nM | CC50 (MCF7; Homo sapiens, MCF7, read-out: LC50): 7.72 µM | Percent Growth (MCF7; Log10 Concentration −4.0): −63% | Percent Growth (MCF7; Log10 Concentration −5.0): −64% | Percent Growth (MCF7; Log10 Concentration −6.0): 62% | Percent Growth (MCF7; Log10 Concentration −7.0): 77% | Percent Growth (MCF7; Log10 Concentration −8.0): 88% | TGI (MCF7; MCF7): 3.10E−6 | TGI (ACHN [1]; ACHN): 3.33E−6 | GI50 (ACHN [1]; Homo sapiens, ACHN): 1710 nM | Percent Growth (ACHN [1]; Log10 Concentration −4.0): −39% | Percent Growth (ACHN [1]; Log10 Concentration −5.0): −82% | Percent Growth (ACHN [1]; Log10 Concentration −6.0): 90% | Percent Growth (ACHN [1]; Log10 Concentration −7.0): 114% | Percent Growth (ACHN [1]; Log10 Concentration −8.0): 107% | GI50 (LOX IMVI; Homo sapiens, LOX IMVI): 1030 nM | CC50 (LOX IMVI; Homo sapiens, LOX IMVI, read-out: LC50): > 100 µM | TGI (LOX IMVI; LOX IMVI): 3.56E−6 | Percent Growth (LOX IMVI; Log10 Concentration −4.0): −33% | Percent Growth (LOX IMVI; Log10 Concentration −5.0): −42% | Percent Growth (LOX IMVI; Log10 Concentration −6.0): 51% | Percent Growth (LOX IMVI; Log10 Concentration −7.0): 98% | Percent Growth (LOX IMVI; Log10 Concentration −8.0): 101% | TGI (A498; A498): >1.00E−4 | GI50 (A498; Homo sapiens, A498): > 100 µM | CC50 (A498; Homo sapiens, A498, read-out: LC50): > 100 µM | Percent Growth (A498; Log10 Concentration −4.0): 84% | Percent Growth (A498; Log10 Concentration −5.0): 100% | Percent Growth (A498; Log10 Concentration −6.0): 96% | Percent Growth (A498; Log10 Concentration −7.0): 104% | Percent Growth (A498; Log10 Concentration −8.0): 105% | GI50 (SR; Homo sapiens, SR): 6.89 µM | CC50 (SR; Homo sapiens, SR, read-out: LC50): > 100 µM | Percent Growth (SR; Log10 Concentration −4.0): −22% | Percent Growth (SR; Log10 Concentration −5.0): 41% | Percent Growth (SR; Log10 Concentration −6.0): 99% | Percent Growth (SR; Log10 Concentration −7.0): 112% | Percent Growth (SR; Log10 Concentration −8.0): 108% | TGI (SR; SR): >1.00E−4 | TGI (HCC-2998; HCC-2998): 4.20E−6 | GI50 (HCC-2998; Homo sapiens, HCC 2998): 2120 nM | CC50 (HCC-2998; Homo sapiens, HCC 2998, read-out: LC50): 8.32 µM | Percent Growth (HCC-2998; Log10 Concentration −4.0): −70% | Percent Growth (HCC-2998; Log10 Concentration −5.0): −63% | Percent Growth (HCC-2998; Log10 Concentration −6.0): 105% | Percent Growth (HCC-2998; Log10 Concentration −7.0): 103% | Percent Growth (HCC-2998; Log10 Concentration −8.0): 109% | GI50 (SF-539 [2]; Homo sapiens, SF-539): 1520 nM | CC50 (SF-539 [2]; Homo sapiens, SF-539, read-out: LC50): 5.38 µM | Percent Growth (SF-539 [2]; Log10 Concentration −4.0): −98% | Percent Growth (SF-539 [2]; Log10 Concentration −5.0): −99% | Percent Growth (SF-539 [2]; Log10 Concentration −6.0): 83% | Percent Growth (SF-539 [2]; Log10 Concentration −7.0): 84% | Percent Growth (SF-539 [2]; Log10 Concentration −8.0): 90% | TGI (SF-539 [2]; SF-539): 2.86E−6 | TGI (CAKI-1; CAKI-1): 6.16E−6 | GI50 (CAKI-1; Homo sapiens, CAKI-1): 2180 nM | CC50 (CAKI-1; Homo sapiens, CAKI-1, read-out: LC50): 41.5 µM | Percent Growth (CAKI-1; Log10 Concentration −4.0): −66% | Percent Growth (CAKI-1; Log10 Concentration −5.0): −23% | Percent Growth (CAKI-1; Log10 Concentration −6.0): 88% | Percent Growth (CAKI-1; Log10 Concentration −7.0): 95% | Percent Growth (CAKI-1; Log10 Concentration −8.0): 90% | GI50 (UO-31 [3]; Homo sapiens, UO-31): 1950 nM | CC50 (UO-31 [3]; Homo sapiens, UO-31, read-out: LC50): 7.41 µM | Percent Growth (UO-31 [3]; Log10 Concentration −4.0): −66% | Percent Growth (UO-31 [3]; Log10 Concentration −5.0): −72% | Percent Growth (UO-31 [3]; Log10 Concentration −6.0): 100% | Percent Growth (UO-31 [3]; Log10 Concentration −7.0): 118% | Percent Growth (UO-31 [3]; Log10 Concentration −8.0): 111% | TGI (UO-31 [3]; UO-31): 3.81E−6 | GI50 (M14; Homo sapiens, M14): 2440 nM | CC50 (M14; Homo sapiens, M14, read-out: LC50): > 100 µM | Percent Growth (M14; Log10 Concentration −4.0): −41% | Percent Growth (M14; Log10 Concentration −5.0): −32% | Percent Growth (M14; Log10 Concentration −6.0): 102% | Percent Growth (M14; Log10 Concentration −7.0): 100% | Percent Growth (M14; Log10 Concentration −8.0): 100% | TGI (M14; M14): 5.78E−6 | GI50 (OVCAR-3; Homo sapiens, OVCAR-3): 2060 nM | CC50 (OVCAR-3; Homo sapiens, OVCAR-3, read-out: LC50): 28.2 µM | Percent Growth (OVCAR-3; Log10 Concentration −4.0): −75% | Percent Growth (OVCAR-3; Log10 Concentration −5.0): −29% | Percent Growth (OVCAR-3; Log10 Concentration −6.0): 86% | Percent Growth (OVCAR-3; Log10 Concentration −7.0): 110% | Percent Growth (OVCAR-3; Log10 Concentration −8.0): 116% | TGI (OVCAR-3; OVCAR-3): 5.59E−6 | GI50 (SW-620; Homo sapiens, SW-620): 8.55 µM | CC50 (SW-620; Homo sapiens, SW-620, read-out: LC50): 69.2 µM | Percent Growth (SW-620; Log10 Concentration −4.0): −68% | Percent Growth (SW-620; Log10 Concentration −5.0): 46% | Percent Growth (SW-620; Log10 Concentration −6.0): 107% | Percent Growth (SW-620; Log10 Concentration −7.0): 103% | Percent Growth (SW-620; Log10 Concentration −8.0): 106% | TGI (SW-620; SW-620): 2.52E−5 | GI50 (SK-MEL-28; Homo sapiens, SK-MEL-28): 9.88 µM | CC50 (SK-MEL-28; Homo sapiens, SK-MEL-28, read-out: LC50): 50.3 µM | Percent Growth (SK-MEL-28; Log10 Concentration −4.0): −93% | Percent Growth (SK-MEL-28; Log10 Concentration −5.0): 50% | Percent Growth (SK-MEL-28; Log10 Concentration −6.0): 107% | Percent Growth (SK-MEL-28; Log10 Concentration −7.0): 106% | Percent Growth (SK-MEL-28; Log10 Concentration −8.0): 103% | TGI (SK-MEL-28; SK-MEL-28): 2.24E−5 | GI50 (SNB-19; Homo sapiens, SNB-19): 1860 nM | CC50 (SNB-19; Homo sapiens, SNB-19, read-out: LC50): 6.43 µM | Percent Growth (SNB-19; Log10 Concentration −4.0): −98% | Percent Growth (SNB-19; Log10 Concentration −5.0): −86% | Percent Growth (SNB-19; Log10 Concentration −6.0): 100% | Percent Growth (SNB-19; Log10 Concentration −7.0): 101% | Percent Growth (SNB-19; Log10 Concentration −8.0): 102% | TGI (SNB-19; SNB-19): 3.46E−6

CCc1nc2ccc3c(c2[nH]1)C(=O)c1ccccc1C3=O [No. 4, 2-Ethyl-1(3)H-anthra[1,2-d]imidazole-6,11-dione]
inhibition effect on cancer cell line (Table 2 value) (HOP-92): 41.43 | inhibition effect on cancer cell line (Table 2 value) (OVCAR-4): 48.81 | inhibition effect on cancer cell line (Table 2 value) (UO-31 [4]): 23.94 | inhibition effect on cancer cell line (Table 2 value) (SF-539 [5]): 83.16 | inhibition effect on cancer cell line (Table 2 value) (ACHN [6]): 24.97 | inhibition effect on cancer cell line (Table 2 value) (T-47D): 63.05
